Experimental data: patent US4612366A, “Cyclic hexapeptide somatostatin analogs” (Merck & Co., Inc., priority 1985, dated 1986)

Experiments:
portal vein insulin = experiment: Decrease of portal vein insulin levels in anesthetized rats, compared to somatostatin; type: in vivo, rat; settings: multiples or fractions of the effect of somatostatin (= 1); urethane-anesthetized male Sprague-Dawley rats, external jugular vein, portal vein blood after 5 minutes
Description: (§1) Analogs of somatostatin were compared to somatostatin in their ability to decrease the levels of portal vein glucagon and insulin in anesthetized rats. Male Sprague-Dawley rats (Charles River CD) weighing 160-200 g were anestetized with urethane (150 mg/100 g of body weight; Aldrich). Saline or peptides were administered via the external jugular vein. After 5 minutes, the portal vein was exposed, and blood was collected via syringe containing 3 mg of EDTA and placed in chilled tubes containing 100 μl of Trasylol (FBA Pharmaceuticals) for subsequent hormone analysis. Plasma levels of glucagon were determined by the method of Faloona and Unger, Methods of Hormone Radioimmunossay, Jaffe and Behrman (Eds), Academic Press, New York, Vol. II, pp. 257-527 (1976), utilizing glucagon antisera 30K obtained from R. Unger (Dallas, TX). Plasma levels of insulin were determined by a modification of the procedure of Herbert et al., J. Clin. Endocrinol. Metab., 25, 1375-1384 (1965).
(§2) The test results for some of the compounds of this invention are recorded below with the results for somatostatin listed first and given the arbitrary value of 1. The results for the instant compounds are given as multiples or fractions of the effect of somatostatin. The first of the instant compounds listed is the compound prepared in Example 1-5. […]

portal vein glucagon = experiment: Decrease of portal vein glucagon levels in anesthetized rats, compared to somatostatin; type: in vivo, rat; settings: multiples or fractions of the effect of somatostatin (= 1); urethane-anesthetized male Sprague-Dawley rats, external jugular vein, portal vein blood after 5 minutes
Description: as §1, §2

**Q.** With `C[C@H](N)C(=O)NCC(=O)N[C@H]1CSSC[C@@H](C(=O)O)NC(=O)[C@H](CO)NC(=O)[C@H]([C@@H](C)O)NC(=O)[C@H](Cc2ccccc2)NC(=O)[C@H]([C@@H](C)O)NC(=O)[C@H](CCCCN)NC(=O)[C@H](Cc2c[nH]c3ccccc23)NC(=O)[C@H](Cc2ccccc2)NC(=O)[C@H](Cc2ccccc2)NC(=O)[C@H](CC(N)=O)NC(=O)[C@H](CCCCN)NC1=O` [Somatostatin] as the compound, how does the “Insulin Release Inhibition” value (portal vein insulin) read?
**A.** The value was 1.

**Q.** And the “Glucagon Inhibition” value (portal vein glucagon)?
**A.** Its value is 1.
